Source: paper PMC6121455, “Synthesis and Spectrum of Biological Activities of Novel N-arylcinnamamides” (International Journal of Molecular Sciences, 2018)
Values after ≈ are worked out from the molar mass of the structure shown. Values joined by “and” are separate entries in the source; they are usually repeats but may differ in a detail not shown here. Identical values can stand only once. “Also recorded” adds a separate entry of the source. Like-named read-outs stand apart in the source and are kept apart here.

Assays:
M. tuberculosis H37Ra = conditions: cited from earlier work
[1] = tested on: Bipolaris sorokiniana (Sacc.) Shoemaker H-299; experiment: In vitro antifungal activity, mycelial growth (MIC); type: cell-based; conditions: B. sorokiniana mycelial growth; for MIC: Bipolaris sorokiniana
[2] = tested on: Bipolaris sorokiniana conidium germination; experiment: Inhibition of Bipolaris sorokiniana conidium germination; type: cell-based; conditions: 48 h, read-out: Inhibition (%) Compared to Negative Control, conidium germination
[3] = tested on: Fusarium avenaceum (Fr.) Sacc. IMI 319947; experiment: In vitro antifungal activity, mycelial growth (MIC); type: cell-based; conditions: F. avenaceum mycelial growth
MRSA 63718 [4] = experiment: In vitro antibacterial evaluation, broth dilution micro-method (MIC); type: cell-based, Staphylococcus aureus; conditions: 24 h, read-out: MIC MRSA 63718
MRSA SA 630 [5] = experiment: Synergy effect with clinically used drugs (fractional inhibitory concentration); type: cell-based, Staphylococcus aureus; conditions: for Separate MIC: MRSA SA 630, each drug alone in the checkerboard plate; for Combined effect with vancomycin: additivity 0.5 < ΣFIC < 1
THP-1 cells = experiment: In vitro antiproliferative assay (WST-1); type: cell-based, human; conditions: WST-1, 24 h, highest concentration 30 μM, read-out: Tox IC50 (antiproliferative)
Description: The activity of this enzyme directly correlates with the number of metabolically active cells in the culture. […] Human monocytic leukemia THP-1 cells were used for in vitro antiproliferative assay. […] Cells were passaged at approximately one-week intervals. […] The maximum concentration of DMSO in the assays never exceeded 0.1%. Subsequently, the cells were incubated at 37 °C with 5% CO2 for 24 h. […] The median inhibition concentration values, IC50, were deduced through the production of a dose-response curve. All data were evaluated using GraphPad Prism 5.00 software (GraphPad Software, San Diego, CA, USA).

[6] = Lipophilicity determination by RP-HPLC (capacity factor k / log k); conditions: C18, isocratic MeOH 72%/H2O 28%
[7] = tested on: Nicotiana tabacum var. Samsun; experiment: In vivo toxicity against plant cells (leaf injection); conditions: water solutions 1× MIC and 4× MIC injected into leaves, checked visually for 5 weeks
Description: Nicotiana tabacum var. Samsun was used for this test [88].
Nicotiana tabacum var. Samsun was used for this test. […] As the negative control, solutions of DMSO in the same concentration were used. The positive control was 5% DMSO, which should be toxic to the plant cells. The aqueous solutions were injected into the plant leaves by a syringe (needle 27G × ¾”) to fill area approx. 1 cm^2 [88]. The test was made in triplicates in three different plants. The plants were kept in a greenhouse on direct sunlight. The effect of the compounds was visually checked every day for 5 weeks.

S. aureus ATCC 29213 = experiment: Dynamics of antibacterial effect (time-kill curves); type: cell-based, Staphylococcus aureus; conditions: 4× MIC, after 8 h; bactericidal = −3log decrease of CFU/mL
MRSA SA 3202 [8] = experiment: In vitro antibacterial evaluation, broth dilution micro-method (MIC); type: cell-based, Staphylococcus aureus; conditions: 24 h, read-out: MIC MRSA SA 3202
MRSA SA 3202 [9] = experiment: Synergy effect with clinically used drugs (fractional inhibitory concentration); type: cell-based, Staphylococcus aureus; conditions: for Separate MIC: MRSA SA 3202, each drug alone in the checkerboard plate; for Combined effect with vancomycin: additivity 0.5 < ΣFIC < 1
MRSA SA 630 [10] = experiment: In vitro antibacterial evaluation, broth dilution micro-method (MIC); type: cell-based, Staphylococcus aureus; conditions: 24 h, read-out: MIC MRSA SA 630
[11] = tested on: photosynthetic electron transport (PET) in spinach chloroplasts; experiment: Inhibition of photosynthetic electron transport (PET) in spinach chloroplasts (Hill reaction, DCPIP); type: biochemical, Spinacia oleracea L.
Description: Chloroplasts were prepared from spinach (Spinacia oleracea L.) according to Masarovicova and Kralova. The inhibition of photosynthetic electron transport (PET) in spinach chloroplasts was determined spectrophotometrically (Genesys 6, Thermo Scientific), using an artificial electron acceptor 2,6-dichlorophenol-indophenol (DCIPP) according to Kralova et al., and the rate of photosynthetic electron transport was monitored as a photoreduction of DCPIP. The measurements were carried out in phosphate buffer (0.02 mol/L, pH 7.2) containing sucrose (0.4 mol/L), MgCl2 (0.005 mol/L), and NaCl (0.015 mol/L). The chlorophyll content was 30 mg/L in these experiments, and the samples were irradiated (~100 W/m^2 with 10 cm distance) with a halogen lamp (250 W) using a 4 cm water filter to prevent warming of the samples (suspension temperature 22 °C). The studied compounds were dissolved in DMSO due to their limited water solubility.

Staphylococcus aureus = experiment: Pre-test subcultivation of aliquots on agar (minimal bactericidal concentration); type: cell-based
[12] = tested on: Staphylococcus aureus ATCC 29213; experiment: In vitro antibacterial evaluation, broth dilution micro-method (MIC); type: cell-based; conditions: read-out: MIC SA
[13] = tested on: S. aureus ATCC 29213 biofilm formation; experiment: Biofilm inhibition assay (crystal violet); type: cell-based, Staphylococcus aureus
MRSA 63718 [14] = experiment: Synergy effect with clinically used drugs (fractional inhibitory concentration); type: cell-based, Staphylococcus aureus; conditions: MRSA 63718, each drug alone in the checkerboard plate
[15] = Staphylococcus aureus, ATCC29213, 24 h
[16] = MRSA SA 3202, synergy ΣFIC ≤ 0.5

| Compound | MIC [1] | MIC ([3]; Fusarium avenaceum) | MIC (MRSA 63718 [4]) | MIC (MRSA 63718 [4]; Staphylococcus aureus, MRSA) | Separate MIC (MRSA SA 630 [5]) | Combined effect with vancomycin (MRSA SA 630 [5]; MRSA SA 630) | IC50 (THP-1 cells; Homo sapiens, THP-1, 24 h) | IC50 (THP-1 cells) | log k [6] | bactericidal effect in time-kill curve assay (S. aureus ATCC 29213) | MIC (MRSA SA 3202 [8]) | MIC (MRSA SA 3202 [8]; Staphylococcus aureus, MRSA) | Separate MIC (MRSA SA 3202 [9]) | Combined effect with vancomycin (MRSA SA 3202 [9]; MRSA SA 3202) | MIC (MRSA SA 630 [10]) | MIC (MRSA SA 630 [10]; Staphylococcus aureus, MRSA) | IC50 [11] | minimal bactericidal concentrations (Staphylococcus aureus) | MIC ([12]; S. aureus ATCC 29213, 24 h) | MIC [12, 15] | also measured |
| --- | --- | --- | --- | --- | --- | --- | --- | --- | --- | --- | --- | --- | --- | --- | --- | --- | --- | --- | --- | --- | --- |
| O=C(Nc1cccc(C(F)(F)F)c1)c1ccc2cccc(O)c2n1 [8-hydroxy-N-(3-trifluoromethylphenyl)quinoline-2-carbox-amide] |  |  |  |  |  |  |  |  |  |  |  |  |  |  |  |  |  |  |  |  | decrease of the viability of M. tuberculosis H37Ra to (M. tuberculosis H37Ra): 18.8% |
| CCCCNC(=O)n1c(NC(=O)OC)nc2ccccc21 [BNM, benomyl, reference compound] | 17.2 µM and 5 µg/mL | 1.94 µM and 0.5 µg/mL |  |  |  |  |  |  |  |  |  |  |  |  |  |  |  |  |  |  | inhibition at 5 µg/mL ([2]; 5 μg/mL): 100%; inhibition at 10 µg/mL ([2]; 10 μg/mL): 100% |
| O=C(/C=C/c1ccccc1)Nc1cccc(C(F)(F)F)c1 [Compound 6, (2E)-3-Phenyl-N-[3-(trifluoromethyl)phenyl]prop-2-enamide] | 54.9 µM and 16 µg/mL | 54.9 µM and 16 µg/mL | 27.47 µM (≈ 8 µg/mL) | 27.5 µM and 8 µg/mL | 8 µg/mL | additivity | 22 µM | 22.7 ± 1.73 µM | 0.4859 | very close to the bactericidal level | 27.47 µM (≈ 8 µg/mL) | 27.5 µM and 8 µg/mL | 16 μg/mL and 8/8 μg/mL and 8 μg/mL | additivity | 27.47 µM (≈ 8 µg/mL) | 27.5 µM and 8 µg/mL | 189 µM | ≤ 4 × MIC | 27.47 µM (≈ 8 µg/mL) | 27.5 µM and 8 µg/mL | MIC BS [1]: 49.98 to 66.32 µM; in vivo toxicity against plant cells [7]: nontoxic effect; also recorded: no visible influence on the plant tissue; MIC [3]: 54.93 µM (≈ 16 µg/mL); lowest concentration which inhibited ≥80% of biofilm formation ([13]; S. aureus ATCC 29213, 48 h): 8 µg/mL |
| O=C(/C=C/c1ccccc1)Nc1cc(C(F)(F)F)cc(C(F)(F)F)c1 [Compound 13, (2E)-N-[3,5-bis(Trifluoromethyl)phenyl]-3-phenylprop-2-enamide] | 356 µM and 128 µg/mL | 713 µM and 256 µg/mL | 22.27 µM (≈ 8 µg/mL) | 22.3 µM and 8 µg/mL | 8 µg/mL and 4 µg/mL | additivity | 22 µM | 22.6 ± 1.88 µM | 0.981 and 0.9814 | bactericidal | 22.27 µM (≈ 8 µg/mL) | 22.3 µM and 8 µg/mL | 32 µg/mL | additivity | 22.27 µM (≈ 8 µg/mL) | 22.3 µM and 8 µg/mL | 111 µM | ≤ 4 × MIC | 22.27 µM (≈ 8 µg/mL) | 22.3 µM and 8 µg/mL | Combined effect with ciprofloxacin (MRSA SA 630 [5]; MRSA SA 630, synergy ΣFIC ≤ 0.5): synergistic; Combined effect with ciprofloxacin (MRSA SA 3202 [9]; [16]): synergistic; Combined effect with tetracycline (MRSA SA 3202 [9]; [16]): synergistic |
| CN(C)[C@@H]1C(O)=C(C(N)=O)C(=O)[C@@]2(O)C(O)=C3C(=O)c4c(O)cccc4[C@@](C)(O)[C@H]3C[C@@H]12 [TET, tetracycline, reference compound] |  |  |  |  |  |  |  |  |  |  |  |  | 64 µg/mL |  |  |  |  |  |  |  | Separate MIC (MRSA 63718 [14]): 128 µg/mL |
| CN[C@H](CC(C)C)C(=O)N[C@H]1C(=O)N[C@@H](CC(N)=O)C(=O)N[C@H]2C(=O)N[C@H]3C(=O)N[C@H](C(=O)N[C@H](C(=O)O)c4cc(O)cc(O)c4-c4cc3ccc4O)[C@H](O)c3ccc(c(Cl)c3)Oc3cc2cc(c3O[C@@H]2O[C@H](CO)[C@@H](O)[C@H](O)[C@H]2O[C@H]2C[C@](C)(N)[C@H](O)[C@H](C)O2)Oc2ccc(cc2Cl)[C@H]1O [VAN, vancomycin, reference compound] |  |  |  |  | 1 µg/mL |  |  |  |  |  |  |  | 1 µg/mL |  |  |  |  |  |  |  | Separate MIC (MRSA 63718 [14]): 2 µg/mL; effect on biofilm formation ([13]; sub-MIC concentrations): induction of biofilm formation |
